Molecular target: FXR (Homo sapiens (Human), UniProt Q96RI1)
Experiment: FXR EC50 (FXR agonist activity reported with each example)
Format: cell-based

FXR, sequence (Q96RI1 262-486): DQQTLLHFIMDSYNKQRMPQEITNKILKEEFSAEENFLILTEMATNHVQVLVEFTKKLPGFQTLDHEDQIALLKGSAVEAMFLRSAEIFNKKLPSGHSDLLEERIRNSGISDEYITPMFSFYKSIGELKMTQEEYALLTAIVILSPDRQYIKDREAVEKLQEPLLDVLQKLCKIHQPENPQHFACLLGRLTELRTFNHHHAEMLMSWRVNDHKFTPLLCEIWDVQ

| SMILES | EC50 [nM] |
| --- | --- |
| O=C(O)[C@@H]1CCC[C@H](OCC23CCC(OCc4c(-c5ccccc5OC(F)(F)F)noc4C4CC4)(CC2)CC3)C1 [Example 80] | 5100 |
| O=C(O)c1cc(OC2COC2)c2cc(OCC34CCC(OCc5c(-c6c(Cl)cncc6Cl)noc5C5CC5)(CC3)CC4)cc(F)c2n1 [Example 312, 6-((4-((5-cyclopropyl-3-(3,5-dichloropyridin-4-yl)isoxazol-4-yl)methoxy)bicyclo[2.2.2]octan-1-yl)methoxy)-8-fluoro-4-(oxetan-3-yloxy)quinoline-2-carboxylic acid] | 47 |
| CC(C)(C(N)=O)c1ccc(C23CCC(/C=C/c4c(-c5ccccc5C(F)(F)F)noc4C4CC4)(CC2)CO3)cc1 [Example 480, (E)-2-(4-(4-(2-(5-cyclopropyl-3-(2-(trifluoromethyl)phenyl)isoxazol-4-yl)vinyl)-2-oxabicyclo[2.2.2]octan-1-yl)phenyl)-2-methylpropanamide] | 1000 |
| O=C(O)c1ccc(N2CCCC2)c2nc(C34CCC(OCc5c(-c6c(Cl)cncc6Cl)noc5C5CC5)(CC3)CC4)ccc12 [Example 409] | 81 |
| O=C(O)c1cccc(-c2noc(C34CCC(/C=C\c5c(-c6c(Cl)cccc6Cl)noc5C5CC5)(CC3)CC4)n2)c1 [Example 163, (Z)-3-(5-(4-(2-(5-cyclopropyl-3-(2,6-dichlorophenyl)isoxazol-4-yl)vinyl)bicyclo[2.2.2]octan-1-yl)-1,2,4-oxadiazol-3-yl)benzoic acid] | 211 |
| COc1cc(C(=O)N(C)C)nc2ccc(C#CC34CCC(OCc5c(-c6c(Cl)cncc6Cl)noc5C5CC5)(CC3)CC4)cc12 [Example 522, 6-((4-((5-cyclopropyl-3-(3,5-dichloropyridin-4-yl)isoxazol-4-yl)methoxy)bicyclo[2.2.2]octan-1-yl)ethynyl)-4-methoxy-N,N-dimethylquinoline-2-carboxamide] | 52 |
| COC(=O)c1ccc(NC(=S)C23CCC(COCc4c(-c5c(Cl)cccc5Cl)noc4C4CC4)(CC2)CC3)c(Cl)c1 [Intermediate 168A, methyl 3-chloro-4-(4-(((5-cyclopropyl-3-(2,6-dichlorophenyl)isoxazol-4-yl)methoxy)methyl)bicyclo[2.2.2]octane-1-carbothioamido)benzoate] | 4380 |
| O=C(O)c1cc(F)cc(-c2noc(C34CCC(/C=C/c5c(-c6c(Cl)cncc6Cl)noc5C5CC5)(CC3)CC4)n2)c1 [Example 442, (E)-3-(5-(4-(2-(5-cyclopropyl-3-(3,5-dichloropyridin-4-yl)isoxazol-4-yl)vinyl)bicyclo[2.2.2]octan-1-yl)-1,2,4-oxadiazol-3-yl)-5-fluorobenzoic acid] | 79 |
| O=C(O)c1cncc(OCC23CCC(OCc4c(-c5c(Cl)cccc5Cl)noc4C4CC4)(CC2)CC3)n1 [Example 112, 6-((4-((5-cyclopropyl-3-(2,6-dichlorophenyl)isoxazol-4-yl)methoxy)bicyclo[2.2.2]octan-1-yl)methoxy)pyrazine-2-carboxylic acid] | 690 |
| O=C(O)c1cc(OCC23CCC(OCc4c(-c5c(Cl)cccc5Cl)noc4C4CC4)(CC2)CC3)ccc1F [Example 93, 5-((4-((5-cyclopropyl-3-(2,6-dichlorophenyl)isoxazol-4-yl)methoxy)bicyclo[2.2.2]octan-1-yl)methoxy)-2-fluorobenzoic acid] | 32 |
| COc1cc(C(=O)O)nc2ccc(OCC34CCC(OCc5c(-c6ccccc6C(F)(F)F)noc5C5CC5)(CC3)CC4)cc12 [Example 289] | 150 |
| O=C(O)c1ccc(C2CC2)c2nc(C34CCC(OCc5c(-c6c(Cl)cncc6Cl)noc5C5CC5)(CC3)CC4)ccc12 [Example 385, 8-cyclopropyl-2-(4-((5-cyclopropyl-3-(3,5-dichloropyridin-4-yl)isoxazol-4-yl)methoxy)bicyclo[2.2.2]octan-1-yl)quinoline-5-carboxylic acid] | 13 |
| O=C(O)c1cc(-c2nc(C34CCC(OCc5c(-c6ccccc6OC(F)(F)F)noc5C5CC5)(CC3)CC4)no2)ccn1 [Example 58] | 4000 |
| O=C(O)c1cc(F)c2nc(C34CCC(OCc5c(-c6c(Cl)cncc6Cl)noc5C5CC5)(CC3)CC4)sc2c1 [Example 231, 2-(4-((5-cyclopropyl-3-(3,5-dichloropyridin-4-yl)isoxazol-4-yl)methoxy)bicyclo[2.2.2]octan-1-yl)-4-fluorobenzo[d]thiazole-6-carboxylic acid] | 53 |
| O=C(O)c1ccc(-c2noc(C34CCC(OCc5c(-c6ccccc6C(F)(F)F)noc5C5CC5)(CC3)CC4)n2)cn1 [Example 46] | 2700 |
| O=C(O)c1cccc(-c2noc(C34CCC(COCc5c(-c6c(Cl)cccc6Cl)noc5C5CC5)(CC3)CO4)n2)c1 [Example 210, 3-(5-(4-(((5-cyclopropyl-3-(2,6-dichlorophenyl)isoxazol-4-yl)methoxy)methyl)-2-oxabicyclo[2.2.2]octan-1-yl)-1,2,4-oxadiazol-3-yl)benzoic acid] | 960 |
| COc1cc(C(=O)O)nc2c(F)cc(OCC34CCC(OCc5c(-c6c(Cl)cncc6Cl)noc5C5CC5)(CC3)CC4)cc12 [Example 303, 6-((4-((5-cyclopropyl-3-(3,5-dichloropyridin-4-yl)isoxazol-4-yl)methoxy)bicyclo[2.2.2]octan-1-yl)methoxy)-8-fluoro-4-methoxyquinoline-2-carboxylic acid] | 24 |
| O=C(O)c1ccc(C23CCC(/C=C/c4c(-c5c(Cl)cncc5Cl)noc4C4CC4)(CC2)CO3)cc1 [Example 457, (E)-4-(4-(2-(5-cyclopropyl-3-(3,5-dichloropyridin-4-yl)isoxazol-4-yl)vinyl)-2-oxabicyclo[2.2.2]octan-1-yl)benzoic acid] | 87 |

| SMILES | EC50 [nM] |
| --- | --- |
| Cc1cc(OCC23CCC(OCc4c(-c5c(Cl)cncc5Cl)noc4C4CC4)(CC2)CC3)cnc1C(=O)O [Example 348, 5-((4-((5-cyclopropyl-3-(3,5-dichloropyridin-4-yl)isoxazol-4-yl)methoxy)bicyclo[2.2.2]octan-1-yl)methoxy)-3-methylpicolinic acid] | 59 |
| Clc1cccc(Cl)c1-c1noc(C2CC2)c1COC12CCC(COc3cccc(-c4nn[nH]n4)c3)(CC1)CC2 [Example 89, 4-((4-((3-(2H-tetrazol-5-yl)phenoxy)methyl)bicyclo[2.2.2]octan-1-yloxy)methyl)-5-cyclopropyl-3-(2,6-dichlorophenyl)isoxazole] | 120 |
| O=C(O)c1cc(-c2nc(C34CCC(OCc5c(-c6ccccc6C(F)(F)F)noc5C5CC5)(CC3)CC4)no2)ccn1 [Example 59] | 3800 |
| O=C(O)c1cc(C(F)(F)F)cc(C23CCC(COCc4c(-c5c(Cl)cncc5Cl)noc4C4CC4)(CC2)CO3)c1 [Example 490, 3-(4-(((5-cyclopropyl-3-(3,5-dichloropyridin-4-yl)isoxazol-4-yl)methoxy)methyl)-2-oxabicyclo[2.2.2]octan-1-yl)-5-(trifluoromethyl)benzoic acid] | 96 |
| COc1cc(-c2noc(C34CCC(OCc5c(-c6c(Cl)cncc6Cl)noc5C5CC5)(CC3)CC4)n2)cc(C(=O)O)n1 [Example 257, 4-(5-(4-((5-cyclopropyl-3-(3,5-dichloropyridin-4-yl)isoxazol-4-yl)methoxy)bicyclo[2.2.2]octan-1-yl)-1,2,4-oxadiazol-3-yl)-6-methoxypicolinic acid] | 79 |
| O=C(O)c1cc(F)cc(-c2noc(C34CCC(OCc5c(-c6c(Cl)cccc6Cl)noc5C5CC5)(CC3)CO4)n2)c1 [Example 219, 3-(5-(4-((5-cyclopropyl-3-(2,6-dichlorophenyl)isoxazol-4-yl)methoxy)-2-oxabicyclo[2.2.2]octan-1-yl)-1,2,4-oxadiazol-3-yl)-5-fluorobenzoic acid] | 300 |
| O=C(O)c1ccc(C23CCC(/C=C/c4c(-c5c(Cl)cccc5Cl)noc4C4CC4)(CC2)CO3)cc1 [Example 194, (E)-4-(4-(2-(5-cyclopropyl-3-(2,6-dichlorophenyl)isoxazol-4-yl)vinyl)-2-oxabicyclo[2.2.2]octan-1-yl)benzoic acid] | 34 |
| OCc1noc(C23CCC(OCc4c(-c5c(Cl)cccc5Cl)noc4C4CC4)(CC2)CC3)n1 [Example 73, (5-(4-((5-cyclopropyl-3-(2,6-dichlorophenyl)isoxazol-4-yl)methoxy)bicyclo[2.2.2]octan-1-yl)-1,2,4-oxadiazol-3-yl)methanol] | 600 |
| O=C(O)c1ccc2cc(C#CC34CCC(OCc5c(-c6c(Cl)cncc6Cl)noc5C5CC5)(CC3)CC4)ccc2n1 [Example 382] | 62 |
| O=C(O)c1cc(F)c2nc(C(O)C34CCC(OCc5c(-c6c(Cl)cccc6Cl)noc5C5CC5)(CC3)CC4)sc2c1 (centres unmarked) [Example 122, 2-((4-((5-cyclopropyl-3-(2,6-dichlorophenyl)isoxazol-4-yl)methoxy)bicyclo[2.2.2]octan-1-yl)(hydroxy)methyl)-4-fluorobenzo[d]thiazole-6-carboxylic acid] | 1000 |
| O=C(O)c1ccc(OCC23CCC(OCc4c(-c5c(Cl)cncc5Cl)noc4C4CC4)(CC2)CC3)cn1 [Example 319] | 270 |
| O=C(O)c1ccc(-c2noc(C34CCC(CNc5c(-c6c(Cl)cccc6Cl)noc5C5CC5)(CC3)CC4)n2)cc1 [Example 167] | 530 |
| COCc1cc(C#CC23CCC(OCc4c(-c5c(Cl)cncc5Cl)noc4C4CC4)(CC2)CC3)cc(C(=O)O)c1 [Example 386] | 31 |
| COc1cc(OCC23CCC(OCc4c(-c5c(Cl)cncc5Cl)noc4C4CC4)(CC2)CC3)nc(C(=O)O)c1 [Example 323] | 74 |
| Cc1cc(C(=O)O)nc2c(F)cc(OCC34CCC(OCc5c(-c6c(Cl)cncc6Cl)noc5C5CC5)(CC3)CC4)cc12 [Example 307, 6-((4-((5-cyclopropyl-3-(3,5-dichloropyridin-4-yl)isoxazol-4-yl)methoxy)bicyclo[2.2.2]octan-1-yl)methoxy)-8-fluoro-4-methylquinoline-2-carboxylic acid] | 20 |
| O=C(O)c1ncc(OCC23CCC(OCc4c(-c5ccccc5C(F)(F)F)noc4C4CC4)(CC2)CC3)c2ccccc12 [Example 296] | 62 |
| COCc1cc(OCC23CCC(OCc4c(-c5c(Cl)cncc5Cl)noc4C4CC4)(CC2)CC3)cnc1C(=O)O [Example 293, 5-((4-((5-cyclopropyl-3-(3,5-dichloropyridin-4-yl)isoxazol-4-yl)methoxy)bicyclo[2.2.2]octan-1-yl)methoxy)-3-(methoxymethyl)picolinic acid] | 16 |

From patent publication US10730863B2, “Bridged bicyclic compounds as farnesoid X receptor modulators” (BRISTOL-MYERS SQUIBB COMPANY, priority 2017, dated 2020)
